Measured values taken from patent US7015236B2, “N-heteroarylnicotinamide derivatives” (Sankyo Agro Company, Limited, priority 2001, dated 2006).
Where two headings read alike, the source gives them in different places.

Tested on: green peach aphid (Myzus persicae)
Assay: Insecticidal test for green peach aphid (100 ppm), Test Example 1
Type: in vivo
Conditions: 120 h
Description: Insecticidal test for green peach aphid (Myzus persicae) (100 ppm)
Water (30 ml) was put into a beaker, and a leaf of Komatsuna (Brassica var. rapa) was placed within the beaker such that the stem was immersed in water. On the leaf of Komatsuna, five green peach aphids were released and allowed to fertilize. Two days after the releasing, imagoes were removed and the number of larvae was counted.
A surfactant Newcol NE-710F (trademark, produced by Nippon Nyukazai Co., Ltd., 2%) was dissolved in aqueous acetone (95% aqueous solution, 98%) to prepare solution 1. Next, a dispersant Gousenol GLO5-S (trademark, produced by Nippon Nyukazai Co., Ltd., 0.2% aqueous solution, 0.2%) was dissolved in water (99.8%) to prepare solution 2.
To each of the compounds (8 mg) of the present invention, the above solution 1 (0.4 ml), the above solution 2 (0.4 ml) and water (8 ml) were added. Further, the compounds of the present invention were each diluted with water so that the concentration of each compound was 100 ppm {as a spreading agent, Gramin S (trademark, produced by Sankyo Co., Ltd.) was added so as to have a concentration of 0.01%}.
The above chemical liquid (8 ml) was sprayed on the leaf of Komatsuna by use of a rotary spraying tower. The leaf of Komatsuna was put back in the beaker. Then, the beaker was placed in a thermostatic chamber of 25° C. for 16 hours in the light and for 8 hours in the dark. 5 Days after the spraying, the number of dead insects was counted to calculate the mortality (%).

[1] = 100 ppm spray on Komatsuna leaf, larvae, counted 5 days after spraying, 25° C., read-out: mortality (%)

CCOCN(C(=O)c1cnccc1C(F)(F)F)c1cc(C)no1 [Example 2, N-Ethoxymethyl-N-(3-methyl-5-isoxazolyl)-4-(trifluoromethyl)nicotinamide]
mortality at 100 ppm [1]: ≥ 95%

Cc1noc(NC(=O)c2cnccc2C(F)(F)F)c1Cl [Example 3, N-(4-Chloro-3-methyl-5-isoxazolyl)-4-(trifluoromethyl)nicotinamide]
mortality at 100 ppm [1]: ≥ 95%

CCc1cc(NC(=O)c2cnccc2C(F)(F)F)on1 [Example 5, N-(3-Ethyl-5-isoxazolyl)-4-(trifluoromethyl)nicotinamide]
mortality at 100 ppm [1]: ≥ 95%

CC(C)c1cc(NC(=O)c2cnccc2C(F)(F)F)on1 [Example 6, N-(3-Isopropyl-5-isoxazolyl)-4-(trifluoromethyl)nicotinamide]
mortality at 100 ppm [1]: ≥ 95%

O=Cc1cc(NC(=O)c2cnccc2C(F)(F)F)on1 [Example 7, N-(3-Formyl-5-isoxazolyl)-4-(trifluoromethyl)nicotinamide]
mortality at 100 ppm [1]: ≥ 95%

O=C(Nc1cc(C=NO)no1)c1cnccc1C(F)(F)F [Example 8, N-(3-Hydroxyiminomethyl-5-isoxazolyl)-4-(trifluoromethyl)nicotinamide]
mortality at 100 ppm: ≥ 95%

N#Cc1cc(NC(=O)c2cnccc2C(F)(F)F)on1 [Example 9, N-(3-Cyano-5-isoxazolyl)-4-(trifluoromethyl)nicotinamide]
mortality at 100 ppm [1]: ≥ 95%

COCc1cc(NC(=O)c2cnccc2C(F)(F)F)on1 [Example 10, N-(3-Methoxymethyl-5-isoxazolyl)-4-(trifluoromethyl)nicotinamide]
mortality at 100 ppm [1]: ≥ 95%

O=C(Nc1oncc1Cl)c1cnccc1C(F)(F)F [Example 11, N-(4-Chloro-5-isoxazolyl)-4-(trifluoromethyl)nicotinamide]
mortality at 100 ppm [1]: ≥ 95%

O=C(Nc1onc(C2CC2)c1Cl)c1cnccc1C(F)(F)F [Example 12, N-(4-Chloro-3-cyclopropyl-5-isoxazolyl)-4-(trifluoromethyl)nicotinamide]
mortality at 100 ppm [1]: ≥ 95%

COCc1noc(NC(=O)c2cnccc2C(F)(F)F)c1Cl [Example 13, N-(4-Chloro-3-methoxymethyl-5-isoxazolyl)-4-(trifluoromethyl)nicotinamide]
mortality at 100 ppm [1]: ≥ 95%

Cc1noc(NC(=O)c2cnccc2C(F)(F)F)c1Br [Example 14, N-(4-Bromo-3-methyl-5-isoxazolyl)-4-(trifluoromethyl)nicotinamide]
mortality at 100 ppm [1]: ≥ 95%

Cc1cc(N(C)C(=O)c2cnccc2C(F)(F)F)on1 [Example 16, N-Methyl-N-(3-methyl-5-isoxazolyl)-4-(trifluoromethyl)nicotinamide]
mortality at 100 ppm [1]: ≥ 95%

Cc1cc(N(CC#N)C(=O)c2cnccc2C(F)(F)F)on1 [Example 19, N-Cyanomethyl-N-(3-methyl-5-isoxazolyl)-4-(trifluoromethyl)nicotinamide]
mortality at 100 ppm [1]: ≥ 95%

CSCN(C(=O)c1cnccc1C(F)(F)F)c1cc(C)no1 [Example 20, N-(3-Methyl-5-isoxazolyl)-N-methylthiomethyl-4-(trifluoromethyl)nicotinamide]
mortality at 100 ppm [1]: ≥ 95%

Cc1noc(NC(=O)c2cnccc2C(F)(F)F)n1 [Example 21, N-(3-Methyl-[1,2,4]oxadiazol-5-yl)-4-(trifluoromethyl)nicotinamide]
mortality at 100 ppm [1]: ≥ 95%

N#Cc1noc(NC(=O)c2cnccc2C(F)(F)F)c1Cl [Example 22, N-(4-Chloro-3-cyano-5-isoxazolyl)-4-(trifluoromethyl)nicotinamide]
mortality at 100 ppm [1]: ≥ 95%

N#Cc1noc(NC(=O)c2cnccc2C(F)(F)F)c1F [Example 23, N-(4-Fluoro-3-cyano-5-isoxazolyl)-4-(trifluoromethyl)nicotinamide]
mortality at 100 ppm [1]: ≥ 95%

O=C(Nc1oncc1Br)c1cnccc1C(F)(F)F [Example 24, N-(4-Bromo-5-isoxazolyl)-4-(trifluoromethyl)nicotinamide]
mortality at 100 ppm [1]: ≥ 95%

CCOC(OCC)c1cc(NC(=O)c2cnccc2C(F)(F)F)on1 [Example 26, N-(3-Diethoxymethyl-5-isoxazolyl)-4-(trifluoromethyl)nicotinamide]
mortality at 100 ppm [1]: ≥ 95%

CC(=O)N(C(=O)c1cnccc1C(F)(F)F)c1cc(C)no1 [Example 27, N-Acetyl-N-(3-methyl-5-isoxazolyl)-4-(trifluoromethyl)nicotinamide]
mortality at 100 ppm [1]: ≥ 95%

CON=Cc1cc(NC(=O)c2cnccc2C(F)(F)F)on1 [Example 28, N-(3-Methoxyiminomethyl-5-isoxazolyl)-4-(trifluoromethyl)nicotinamide]
mortality at 100 ppm [1]: ≥ 95%

CCOC(=O)c1cc(NC(=O)c2cnccc2C(F)(F)F)on1 [Example 29, N-(3-Ethoxycarbonyl-5-isoxazolyl)-4-(trifluoromethyl)nicotinamide]
mortality at 100 ppm [1]: ≥ 95%

O=C(c1cnccc1C(F)(F)F)N(C(=O)c1cnccc1C(F)(F)F)c1ccno1 [Example 30, 5-[N,N-Bis(4-trifluoromethylnicotinoyl)]aminoisoxazole]
mortality at 100 ppm [1]: ≥ 95%

Cc1noc(NC(=O)c2cnccc2C(F)(F)F)c1C [Example 33, N-(3,4-Dimethyl-5-isoxazolyl)-4-(trifluoromethyl)nicotinamide]
mortality at 100 ppm [1]: ≥ 95%

CCc1cnoc1NC(=O)c1cnccc1C(F)(F)F [Example 34, N-(4-Ethyl-5-isoxazolyl)-4-(trifluoromethyl)nicotinamide]
mortality at 100 ppm [1]: ≥ 95%

CCCc1cnoc1NC(=O)c1cnccc1C(F)(F)F [Example 35, N-(4-Propyl-5-isoxazolyl)-4-(trifluoromethyl)nicotinamide]
mortality at 100 ppm [1]: ≥ 95%

CC(C)c1cnoc1NC(=O)c1cnccc1C(F)(F)F [Example 36, N-(4-Isopropyl-5-isoxazolyl)-4-(trifluoromethyl)nicotinamide]
mortality at 100 ppm [1]: ≥ 95%

O=C(Nc1oncc1C1CC1)c1cnccc1C(F)(F)F [Example 37, N-(4-Cyclopropyl-5-isoxazolyl)-4-(trifluoromethyl)nicotinamide]
mortality at 100 ppm [1]: ≥ 95%

C=CCc1cnoc1NC(=O)c1cnccc1C(F)(F)F [Example 38, N-(4-Allyl-5-isoxazolyl)-4-(trifluoromethyl)nicotinamide]
mortality at 100 ppm [1]: ≥ 95%

CCCCc1cnoc1NC(=O)c1cnccc1C(F)(F)F [Example 39, N-(4-Butyl-5-isoxazolyl)-4-(trifluoromethyl)nicotinamide]
mortality at 100 ppm [1]: ≥ 95%

CC(C)Cc1cnoc1NC(=O)c1cnccc1C(F)(F)F [Example 40, N-(4-Isobutyl-5-isoxazolyl)-4-(trifluoromethyl)nicotinamide]
mortality at 100 ppm [1]: ≥ 95%

O=C(Nc1oncc1C1CCC1)c1cnccc1C(F)(F)F [Example 41, N-(4-Cyclobutyl-5-isoxazolyl)-4-(trifluoromethyl)nicotinamide]
mortality at 100 ppm [1]: ≥ 95%

O=C(Nc1oncc1C1CCCC1)c1cnccc1C(F)(F)F [Example 42, N-(4-Cyclopentyl-5-isoxazolyl)-4-(trifluoromethyl)nicotinamide]
mortality at 100 ppm [1]: ≥ 95%

CCCCCCc1cnoc1NC(=O)c1cnccc1C(F)(F)F [Example 43, N-(4-Hexyl-5-isoxazolyl)-4-(trifluoromethyl)nicotinamide]
mortality at 100 ppm [1]: ≥ 95%

CCCCCCc1cnoc1N(C(=O)c1cnccc1C(F)(F)F)C(=O)c1cnccc1C(F)(F)F [Example 44, 5-[N,N-Bis(4-trifluoromethylnicotinoyl)]amino-4-hexylisoxazole]
mortality at 100 ppm [1]: ≥ 95%

O=C(Nc1oncc1Cc1ccccc1)c1cnccc1C(F)(F)F [Example 45, N-(4-Benzyl-5-isoxazolyl)-4-(trifluoromethyl)nicotinamide]
mortality at 100 ppm [1]: ≥ 95%

O=C(Nc1oncc1CCc1ccccc1)c1cnccc1C(F)(F)F [Example 46, N-(4-Phenylethyl-5-isoxazolyl)-4-(trifluoromethyl)nicotinamide]
mortality at 100 ppm [1]: ≥ 95%

COc1cnoc1NC(=O)c1cnccc1C(F)(F)F [Example 47, N-(4-Methoxy-5-isoxazolyl)-4-(trifluoromethyl)nicotinamide]
mortality at 100 ppm [1]: ≥ 95%

COCc1noc(NC(=O)c2cnccc2C(F)(F)F)c1OC [Example 48, N-(4-Methoxy-3-methoxymethyl-5-isoxazolyl)-4-(trifluoromethyl)nicotinamide]
mortality at 100 ppm [1]: ≥ 95%

CSc1cnoc1NC(=O)c1cnccc1C(F)(F)F [Example 49, N-(4-Methylthio-5-isoxazolyl)-4-(trifluoromethyl)nicotinamide]
mortality at 100 ppm [1]: ≥ 95%

Cc1cnsc1N(C(=O)c1cnccc1C(F)(F)F)C(=O)c1cnccc1C(F)(F)F [Example 50, 5-[N,N-Bis(4-trifluoromethylnicotinoyl)]amino-4-methylthioisoxazole]
mortality at 100 ppm [1]: ≥ 95%

O=C(Nc1oncc1Oc1ccccc1)c1cnccc1C(F)(F)F [Example 51, N-(4-Phenoxy-5-isoxazolyl)-4-(trifluoromethyl)nicotinamide]
mortality at 100 ppm [1]: ≥ 95%

O=C(c1cnccc1C(F)(F)F)N(C(=O)c1cnccc1C(F)(F)F)c1oncc1Oc1ccccc1 [Example 52, 5-[N,N-Bis(4-trifluoromethylnicotinoyl)]amino-4-phenoxyisoxazole]
mortality at 100 ppm [1]: ≥ 95%

O=C(Nc1oncc1-c1ccccc1)c1cnccc1C(F)(F)F [Example 53, N-(4-Phenyl-5-isoxazolyl)-4-(trifluoromethyl)nicotinamide]
mortality at 100 ppm [1]: ≥ 95%
